Measured values taken from patent US20220304950A1, “[…] THE TREATMENT OF PATIENTS WITH MAJOR DEPRESSIVE DISORDER, INCLUDING SUICIDALITY” (JANSSEN PHARMACEUTICALS, INC., priority 2019, published 2022).

What was measured:
Type in all cases: in vivo, human
[1] = tested on: adult patients with MDD assessed to be at imminent risk for suicide; assay: MADRS total score, Study 1 (Example 4); conditions: for MADRS total score change, Diff. of LS Means (SE) vs placebo + SOC: ANCOVA LOCF; for MADRS total score change, LS mean difference Testing-Reference (MMRM): Esk 84 mg + SOC minus placebo + SOC; for MADRS total score, change from baseline to Day 2 (LOCF), mean (SD): negative = improvement
Text: The primary efficacy evaluation will be the MADRS total score. The MADRS will be performed using the Structured Interview Guide for the Montgomery Asberg Depression Rating Scale. The MADRS is a clinician-rated scale designed to be used in subjects with MDD to measure depression severity and detect changes due to antidepressant treatment. The test consists of 10 items, each of which is scored from 0 (item not present or normal) to 6 (severe or continuous presence of the symptoms), for a total possible score of 60. Higher scores represent a more severe condition. The MADRS evaluates apparent sadness, reported sadness, inner tension, sleep, appetite, concentration, lassitude, interest level, pessimistic thoughts, and suicidal thoughts.
The typical recall period for the MADRS is 7 days. In this study, the MADRS will also be administered using a since last assessment recall, a 4-hour recall on Day 1 and Day 25 postdose, and a 24-hour recall on Day 2. For the MADRS performed at 4 hours postdose on Days 1 and 25, the MADRS scores for the sleep item recorded predose on the same day will be carried forward.
The primary efficacy analyses are based on the full efficacy analysis set which is defined as all randomized subjects who received at least 1 dose of double-blind study medication and have both a baseline and a post-baseline evaluation for the Montgomery Xsberg Depression Rating Scale (MADRS) total score or Clinical Global Impression-Severity of Suicidality-Revised (CGI-SS-R).
MADRS consists of 10 items that cover all of the core depressive symptoms: each item is scored from 0 (symptom is not present or is normal) to 6 (severe or continuous presence of the symptom). A total score (0 to 60) is calculated by summing the scores of all 10 items. A higher score represents a more severe condition.

[2] = tested on: adult patients with MDD assessed to be at imminent risk for suicide; assay: CGI-SS-R (SIBAT), Study 1 (Example 4); conditions: 24 hours post first dose; for CGI-SS-R change, Hodges-Lehmann Est. of Treatment Diff. (95% CI): Esk 84 mg + SOC vs placebo + SOC
Text: The SIBAT is a suicide assessment tool that captures suicidal ideation and behavior(s) as reported by patients and reviewed by clinicians permitting efficient collection and documentation of clinical impression of severity of suicidality and imminent and long-term suicide risk and treatment plans.
The CGI-SS-R rating is scored on a 7-point scale from 0 (normal, not at all suicidal) to 6 (among the most extremely suicidal patients) and will be based on the totality of information available to the clinician, including information from the SIBAT. The CGI-SS-R summarizes the clinician's overall impression of severity of suicidality and will be used to assess the key secondary endpoint in this study. This rating operates like numerous other CGI-severity scales that have been used in other psychiatric studies. These instruments have shown clinical validity and sensitivity to change.
Change in CGI-SS-R from baseline to 24 hours post first dose (Day 2). The CGI-SS-R, derived from the Suicidal Ideation and Behavior Assessment Tool (SIBAT) rating is scored on a 7-point scale from 0 (normal, not at all suicidal) to 6 (among the most extremely suicidal patients).

[3] = tested on: adult patients with MDD assessed to be at imminent risk for suicide; assay: MADRS subgroup analysis by prior suicide attempt, pooled Examples 4 and 5; conditions: 24 hours after the first dose
Description: FIG. 11 is a forest plot for the MADRS at 24 hours post first dose: subgroup analyses pooled analysis for Examples 4 and 5.
In certain aspects, the disclosure relates to methods for reducing symptoms of major depressive disorder, including suicidality, in a human patient assessed to be at imminent risk for suicide comprising the administration of esketamine in addition to standard of care treatment. As reflected in the reported data, for depressive symptoms, the treatment differences favored the administration of esketamine plus standard of care treatment over standard of care treatment alone. In addition, treatment differences between patients that previously attempted suicide (attempters) and those that had not (non-attempters) were also present (see, e.g., data reflected in FIGS. 9-17). […] Improvement in this population is of clinical relevance considering that prior suicide attempt has been identified as the single most important predictor/risk factor for suicide in subjects with MDD.

[4] = Esk 84 mg + SOC, 24 hours post first dose
[5] = Esk 84 mg + SOC, 24 hours post first dose, full efficacy analysis set

CN[C@]1(c2ccccc2Cl)CCCCC1=O [esketamine, (S)-2-(2-chlorophenyl)-2-(methylamino)cyclohexanone]
Effect size for the primary endpoint (MADRS) ([1]; 24 hours post first dose): 0.34 | MADRS total score change, Diff. of LS Means (SE) vs placebo + SOC ([1]; 24 hours post first dose): −3.8 (1.39) | MADRS total score change, Diff. of LS Means (SE) vs placebo + SOC ([1]; 24 hours post first dose, listed as Esk): −3.8 | MADRS total score, mean change from baseline (SD) ([1]; ESK+SOC): −16.4 (11.95) | MADRS total score change, LS mean difference Testing-Reference (MMRM) ([1]; Day 1 (DB): 4 H): −2.6 | MADRS total score change, LS mean difference Testing-Reference (MMRM) ([1]; Day 2 (DB)): −3.7 | MADRS total score change, LS mean difference Testing-Reference (MMRM) ([1]; Day 4 (DB)): −4.6 | MADRS total score change, LS mean difference Testing-Reference (MMRM) ([1]; Day 8 (DB)): −2.5 | MADRS total score change, LS mean difference Testing-Reference (MMRM) ([1]; Day 11 (DB)): −2.8 | MADRS total score change, LS mean difference Testing-Reference (MMRM) ([1]; Day 15 (DB)): −1.5 | MADRS total score change, LS mean difference Testing-Reference (MMRM) ([1]; Day 18 (DB)): −2.3 | MADRS total score change, LS mean difference Testing-Reference (MMRM) ([1]; Day 22 (DB)): −3.2 | MADRS total score change, LS mean difference Testing-Reference (MMRM) ([1]; Day 25 (DB): 4 H): −4.1 | MADRS total score change, LS mean difference Testing-Reference (MMRM) ([1]; Day 25 (DB): predose): −2.6 | MADRS total score, change from baseline to Day 2 (LOCF), median [1, 4]: −15.0 | MADRS total score, Day 2 (DB) LOCF, mean [1, 5]: 24.7 | MADRS total score, Day 2 (DB) LOCF, median [1, 5]: 26.0 | MADRS total score, change from baseline to Day 2 (LOCF), mean (SD) [1, 4]: −16.4 (11.95) | MADRS total score, change from baseline to Day 2 (LOCF), mean (SD) ([1]; Esk 84 mg + SOC, 24 hours post first dose, listed as Esk): −16.4 | MADRS total score change from baseline, LS mean (MMRM observed case) ([1]; Esk 84 mg + SOC, Day 1 (DB): 4 H): −12.8 | MADRS total score change from baseline, LS mean (MMRM observed case) ([1]; Esk 84 mg + SOC, Day 2 (DB)): −15.7 | MADRS total score change from baseline, LS mean (MMRM observed case) ([1]; Esk 84 mg + SOC, Day 4 (DB)): −18.3 | MADRS total score change from baseline, LS mean (MMRM observed case) ([1]; Esk 84 mg + SOC, Day 8 (DB)): −19.0 | MADRS total score change from baseline, LS mean (MMRM observed case) ([1]; Esk 84 mg + SOC, Day 11 (DB)): −20.8 | MADRS total score change from baseline, LS mean (MMRM observed case) ([1]; Esk 84 mg + SOC, Day 15 (DB)): −21.6 | MADRS total score change from baseline, LS mean (MMRM observed case) ([1]; Esk 84 mg + SOC, Day 18 (DB)): −23.1 | MADRS total score change from baseline, LS mean (MMRM observed case) ([1]; Esk 84 mg + SOC, Day 22 (DB)): −23.5 | MADRS total score change from baseline, LS mean (MMRM observed case) ([1]; Esk 84 mg + SOC, Day 25 (DB): 4 H): −28.8 | MADRS total score change from baseline, LS mean (MMRM observed case) ([1]; Esk 84 mg + SOC, Day 25 (DB): predose): −24.3 | CGI-SS-R change, Hodges-Lehmann Est. of Treatment Diff. (95% CI) [2]: 0.0 (−1.00; 0.00) | CGI-SS-R change, Hodges-Lehmann Est. of Treatment Diff. (95% CI) ([2]; listed as Esk): 0.0 | CGI-SS-R score, Day 2 (DB) LOCF, median ([2]; Esk 84 mg + SOC): 2.0 | CGI-SS-R score, change from baseline to Day 2 (LOCF), median (range) ([2]; Esk 84 mg + SOC): −1.0 (−6; 2) | CGI-SS-R score, change from baseline to Day 2 (LOCF), median (range) ([2]; Esk 84 mg + SOC, listed as Esk): −1.0 | Estimated difference (95% CI) vs placebo+SOC in change in MADRS total score ([3]; subpopulation with prior suicide attempt (FIG. 11)): −4.81 (−7.26; −2.36) | Estimated difference (95% CI) vs placebo+SOC in change in MADRS total score ([3]; subpopulation without prior suicide attempt (FIG. 11)): −2.32 (−5.54; 0.91)
